The source of these data is patent publication US9242970B2 (ACTELION PHARMACEUTICALS LTD., priority 2010, dated 2016).

Where two headings read alike, the source gives them in different places.

The target in one assay is human orexin-1 receptor (Homo sapiens (Human), UniProt O43613). The experiment in a line: In vitro assay: intracellular calcium measurements (FLIPR), antagonistic activity. The note with it: CHO cells, 3 nM orexin-A, marked values are geometric means of n = 2-6, read-out: IC50 OX1. It is filed as cell-based. In general terms: Calcium flux is commonly read through the fluorescence of an indicator in the cells.

In another assay the target is human orexin-2 receptor (Homo sapiens (Human), UniProt O43614). Described as above. Format: cell-based. As to conditions: CHO cells, 3 nM orexin-A, marked values are geometric means of n = 2-6, read-out: IC50 OX2.
Setting [1] is: compound incubation time of 10 min.

human orexin-1 receptor, sequence (O43613 whole entry): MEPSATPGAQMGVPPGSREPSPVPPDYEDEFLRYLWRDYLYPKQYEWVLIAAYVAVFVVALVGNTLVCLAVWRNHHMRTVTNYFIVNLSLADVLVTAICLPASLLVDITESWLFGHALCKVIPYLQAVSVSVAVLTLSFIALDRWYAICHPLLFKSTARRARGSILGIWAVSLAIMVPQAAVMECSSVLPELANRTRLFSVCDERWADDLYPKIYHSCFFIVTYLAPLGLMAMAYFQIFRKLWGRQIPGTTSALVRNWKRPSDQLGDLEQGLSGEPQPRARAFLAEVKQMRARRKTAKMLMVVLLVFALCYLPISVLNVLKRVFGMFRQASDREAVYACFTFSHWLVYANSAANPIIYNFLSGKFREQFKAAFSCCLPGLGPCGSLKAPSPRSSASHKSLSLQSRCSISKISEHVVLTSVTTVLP
human orexin-2 receptor, sequence (O43614 whole entry): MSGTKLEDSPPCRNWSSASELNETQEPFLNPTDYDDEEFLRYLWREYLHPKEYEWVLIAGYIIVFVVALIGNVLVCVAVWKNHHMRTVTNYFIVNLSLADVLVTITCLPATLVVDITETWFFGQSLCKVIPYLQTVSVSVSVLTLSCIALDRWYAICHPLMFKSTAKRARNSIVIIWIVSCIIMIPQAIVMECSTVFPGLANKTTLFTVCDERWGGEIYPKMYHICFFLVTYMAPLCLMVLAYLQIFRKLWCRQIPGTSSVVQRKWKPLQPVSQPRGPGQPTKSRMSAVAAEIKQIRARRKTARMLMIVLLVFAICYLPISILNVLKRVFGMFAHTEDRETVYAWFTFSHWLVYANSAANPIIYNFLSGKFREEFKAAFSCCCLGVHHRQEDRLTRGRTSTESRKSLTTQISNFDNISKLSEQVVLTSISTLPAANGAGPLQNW

As usually defined, the IC50 is the concentration at which inhibition is half-maximal. As for `COc1cccc(OC)c1C1CCCCC(=O)N1Cc1cnn(-c2ccccc2)c1` (stereo not drawn) [Example 94, 7-(2,6-dimethoxyphenyl)-1-((1-phenyl-1H-pyrazol-4-yl)methyl)azepan-2-one], the IC50 on human orexin-1 receptor (compound incubation 120 min) is 121 nM; on human orexin-2 receptor (compound incubation 120 min), 378 nM.

Take `COc1cccc(OC)c1C1CCCCC(=O)N1Cc1ccc2sc(C)nc2c1` (stereo not drawn) [Example 95, 7-(2,6-dimethoxyphenyl)-1-((2-methylbenzo[d]thiazol-5-yl)methyl)azepan-2-one]: the IC50 at human orexin-1 receptor (compound incubation 120 min) turned out to be 8 nM; on human orexin-2 receptor (compound incubation 120 min) it was 29 nM.

On to `COc1cccc(OC)c1C1CCCCC(=O)N1Cc1cccc(-c2ccncc2)c1` (stereo not drawn) [Example 96, 7-(2,6-dimethoxyphenyl)-1-(3-(pyridin-4-yl)benzyl)azepan-2-one], for which the half-inhibitory concentration (IC50) amounted to 16 nM at human orexin-1 receptor (compound incubation 120 min) and 85 nM at human orexin-2 receptor (compound incubation 120 min).

Turning to `COc1cccc(OC)c1C1CCCCC(=O)N1Cc1cccc(-n2cccn2)c1` (stereo not drawn) [Example 97, 1-(3-(1H-pyrazol-1-yl)benzyl)-7-(2,6-dimethoxyphenyl)azepan-2-one], the IC50 at human orexin-1 receptor (compound incubation 120 min) stood at 5 nM; at human orexin-2 receptor (compound incubation 120 min), 20 nM.

As to `COc1cccc(OC)c1C1CCCCC(=O)N1Cc1csc(-c2ccccc2)n1` (stereo not drawn) [Example 98, 7-(2,6-dimethoxyphenyl)-1-((2-phenylthiazol-4-yl)methyl)azepan-2-one], the IC50 at human orexin-1 receptor (compound incubation 120 min) and on human orexin-2 receptor (compound incubation 120 min) was 6 nM each time.

In the case of `COc1cccc(OC)c1C1CCCCC(=O)N1Cc1cccc(-c2cncs2)c1` (stereo not drawn) [Example 99, 7-(2,6-dimethoxyphenyl)-1-(3-(thiazol-5-yl)benzyl)azepan-2-one], the IC50 at human orexin-1 receptor (compound incubation 120 min) turned out to be 7 nM; on human orexin-2 receptor (compound incubation 120 min), 34 nM.

Take `COc1cccc(OC)c1C1CCCCC(=O)N1Cc1cccc(-c2ncc(C)s2)c1` (stereo not drawn) [Example 100, 7-(2,6-dimethoxyphenyl)-1-(3-(5-methylthiazol-2-yl)benzyl)azepan-2-one]: the IC50 at human orexin-1 receptor (compound incubation 120 min) came out at 1 nM; on human orexin-2 receptor (compound incubation 120 min), 3 nM.

On to `COc1cccc(OC)c1C1CCCCC(=O)N1Cc1cccc(-n2nccn2)c1` (stereo not drawn) [Example 101, 1-(3-(2H-1,2,3-triazol-2-yl)benzyl)-7-(2,6-dimethoxyphenyl)azepan-2-one], for which the half-inhibitory concentration (IC50) on human orexin-1 receptor (compound incubation 120 min) turned out to be 3 nM; at human orexin-2 receptor (compound incubation 120 min), 33 nM.

`COc1cccc(OC)c1C1CCCCC(=O)N1Cc1cccc(-c2cscn2)c1` (stereo not drawn) [Example 102, 7-(2,6-dimethoxyphenyl)-1-(3-(thiazol-4-yl)benzyl)azepan-2-one]: the IC50 is 6 nM at human orexin-1 receptor (compound incubation 120 min) and 19 nM on human orexin-2 receptor (compound incubation 120 min).

`COc1cccc(OC)c1C1CCCCC(=O)N1Cc1ccnc(-n2cccn2)c1` (stereo not drawn) [Example 103, 1-((2-(1H-pyrazol-1-yl)pyridin-4-yl)methyl)-7-(2,6-dimethoxyphenyl)azepan-2-one]: the 50% inhibitory concentration (IC50) at human orexin-1 receptor (compound incubation 120 min) was 8 nM; on human orexin-2 receptor (compound incubation 120 min), 86 nM.

As for `COc1cccc(OC)c1C1CCCCC(=O)N1Cc1cccc(-n2cccn2)n1` (stereo not drawn) [Example 104, 1-((6-(1H-pyrazol-1-yl)pyridin-2-yl)methyl)-7-(2,6-dimethoxyphenyl)azepan-2-one], the IC50 amounted to 38 nM on human orexin-1 receptor (compound incubation 120 min) and 429 nM at human orexin-2 receptor (compound incubation 120 min).

Consider `COc1cccc(OC)c1C1CCCCC(=O)N1Cc1ccc2nc(C)sc2c1` (stereo not drawn) [Example 105, 7-(2,6-dimethoxyphenyl)-1-((2-methylbenzo[d]thiazol-6-yl)methyl)azepan-2-one], for which the IC50 on human orexin-1 receptor (compound incubation 120 min) worked out at 155 nM; on human orexin-2 receptor (compound incubation 120 min), 258 nM.

For `COc1cccc(OC)c1C1CCCCC(=O)N1Cc1cccc(-c2ccccn2)c1F` (stereo not drawn) [Example 106, 7-(2,6-dimethoxyphenyl)-1-(2-fluoro-3-(pyridin-2-yl)benzyl)azepan-2-one], the 50% inhibitory concentration (IC50) came out at 14 nM on human orexin-1 receptor (compound incubation 120 min) and 60 nM on human orexin-2 receptor (compound incubation 120 min).

As to `COc1cccc(OC)c1C1CCCCC(=O)N1Cc1ccc(F)c(-c2ccccn2)c1` (stereo not drawn) [Example 107, 7-(2,6-dimethoxyphenyl)-1-(4-fluoro-3-(pyridin-2-yl)benzyl)azepan-2-one], the half-maximal inhibitory concentration (IC50) at human orexin-1 receptor (compound incubation 120 min) was 4 nM; on human orexin-2 receptor (compound incubation 120 min), 22 nM.

With `COc1cc(OC)c(C2CCC(=O)N2Cc2ccc(OC(F)(F)F)cc2)c(OC)c1` (stereo not drawn) [Example 108, 1-(4-(trifluoromethoxy)benzyl)-5-(2,4,6-trimethoxyphenyl)pyrrolidin-2-one], the IC50 at human orexin-1 receptor (setting [1]) turned out to be 1930 nM; at human orexin-2 receptor (setting [1]), 271 nM.

`COc1cccc(OC)c1C1CCC(=O)N1Cc1cnc2ccccc2c1` (stereo not drawn) [Example 109, 5-(2,6-dimethoxyphenyl)-1-(quinolin-3-ylmethyl)pyrrolidin-2-one]: the IC50 came to 227 nM on human orexin-1 receptor (setting [1]) and 44 nM at human orexin-2 receptor (setting [1]).

Consider `COc1cccc(OC)c1C1CCC(=O)N1Cc1ccc2ccccc2n1` (stereo not drawn) [Example 110, 5-(2,6-dimethoxyphenyl)-1-(quinolin-2-ylmethyl)pyrrolidin-2-one], for which the IC50 on human orexin-1 receptor (setting [1]) stood at 409 nM; on human orexin-2 receptor (setting [1]), 136 nM.

Take `COc1cccc(OC)c1C1CCC(=O)N1Cc1ccc2ccccc2c1` (stereo not drawn) [Example 111, 5-(2,6-dimethoxyphenyl)-1-(naphthalen-2-ylmethyl)pyrrolidin-2-one]: the 50% inhibitory concentration (IC50) at human orexin-1 receptor (setting [1]) amounted to 168 nM; at human orexin-2 receptor (setting [1]), 113 nM.

In the case of `COc1cccc(OC)c1C1CCC(=O)N1Cc1cnc(OC(F)F)c(Cl)c1` (stereo not drawn) [Example 112, 1-((5-chloro-6-(difluoromethoxy)pyridin-3-yl)methyl)-5-(2,6-dimethoxyphenyl)pyrrolidin-2-one], the IC50 on human orexin-1 receptor (setting [1]) worked out at 646 nM; at human orexin-2 receptor (setting [1]) it was 107 nM.

`COc1cccc(OC)c1C1CCC(=O)N1Cc1cccc(-c2ccccc2)c1` (stereo not drawn) [Example 113, 1-([1,1′-biphenyl]-3-ylmethyl)-5-(2,6-dimethoxyphenyl)pyrrolidin-2-one]: the IC50 is 29 nM at human orexin-1 receptor (compound incubation 120 min) and 34 nM at human orexin-2 receptor (compound incubation 120 min).

With `COc1cccc(OC)c1C1CCC(=O)N1Cc1ccc(-c2ccccc2)cc1` (stereo not drawn) [Example 114, 1-([1,1′-biphenyl]-4-ylmethyl)-5-(2,6-dimethoxyphenyl)pyrrolidin-2-one], the values for the half-maximal inhibitory concentration (IC50) at human orexin-1 receptor (compound incubation 120 min) and on human orexin-2 receptor (compound incubation 120 min) were 149 nM and 184 nM, respectively.

For `COc1cccc(OC)c1C1CCC(=O)N1Cc1cccc(-c2cccnc2)c1` (stereo not drawn) [Example 115, 5-(2,6-dimethoxyphenyl)-1-(3-(pyridin-3-yl)benzyl)pyrrolidin-2-one], the IC50 on human orexin-1 receptor (compound incubation 120 min) was 217 nM; at human orexin-2 receptor (compound incubation 120 min), 249 nM.

In the case of `COc1cccc(OC)c1C1CCC(=O)N1Cc1cccc2ccccc12` (stereo not drawn) [Example 116, 5-(2,6-dimethoxyphenyl)-1-(naphthalen-1-ylmethyl)pyrrolidin-2-one], the concentration for half-maximal inhibition (IC50) at human orexin-1 receptor (compound incubation 120 min) stood at 789 nM; at human orexin-2 receptor (compound incubation 120 min), 291 nM.

On to `COc1cccc(OC)c1C1CCC(=O)N1Cc1cccc(Oc2ccccc2)c1` (stereo not drawn) [Example 117, 5-(2,6-dimethoxyphenyl)-1-(3-phenoxybenzyl)pyrrolidin-2-one], for which the IC50 stood at 211 nM at human orexin-1 receptor (compound incubation 120 min) and 65 nM at human orexin-2 receptor (compound incubation 120 min).

As to `COc1cccc(OC)c1C1CCC(=O)N1Cc1ccc(Oc2ccccc2)cc1` (stereo not drawn) [Example 118, 5-(2,6-dimethoxyphenyl)-1-(4-phenoxybenzyl)pyrrolidin-2-one], the IC50 at human orexin-1 receptor (compound incubation 120 min) is 233 nM; on human orexin-2 receptor (compound incubation 120 min) it was 58 nM.

For the molecule `COc1cccc(OC)c1C1CCC(=O)N1Cc1cccc(-c2ccccn2)c1` (stereo not drawn) [Example 119, 5-(2,6-dimethoxyphenyl)-1-(3-(pyridin-2-yl)benzyl)pyrrolidin-2-one], the IC50 stood at 57 nM on human orexin-1 receptor (compound incubation 120 min) and 56 nM at human orexin-2 receptor (compound incubation 120 min).

As for `COc1cccc(OC)c1C1CCC(=O)N1Cc1ccnc(-c2ccccc2)c1` (stereo not drawn) [Example 120, 5-(2,6-dimethoxyphenyl)-1-((2-phenylpyridin-4-yl)methyl)pyrrolidin-2-one], the values for the half-maximal inhibitory concentration (IC50) on human orexin-1 receptor (compound incubation 120 min) and at human orexin-2 receptor (compound incubation 120 min) were 64 nM and 121 nM, respectively.

As to `COc1cccc(OC)c1C1CCC(=O)N1Cc1cccc(-c2ccccc2)n1` (stereo not drawn) [Example 121, 5-(2,6-dimethoxyphenyl)-1-((6-phenylpyridin-2-yl)methyl)pyrrolidin-2-one], the 50% inhibitory concentration (IC50) was determined as 183 nM at human orexin-1 receptor (compound incubation 120 min) and 105 nM at human orexin-2 receptor (compound incubation 120 min).

In the case of `COc1cccc(OC)c1C1CC(C)C(=O)N1Cc1cccc(-c2ccccc2)c1` (stereo not drawn) [Example 122, 1-([1,1′-biphenyl]-3-ylmethyl)-5-(2,6-dimethoxyphenyl)-3-methylpyrrolidin-2-one], the figures for the IC50 on human orexin-1 receptor (compound incubation 120 min) and at human orexin-2 receptor (compound incubation 120 min) were 18 nM and 70 nM, respectively.

Take `COc1cccc(OC)c1C1CC(C)C(=O)N1Cc1cccc(N2CCCC2)c1` (stereo not drawn) [Example 123, 5-(2,6-dimethoxyphenyl)-3-methyl-1-(3-(pyrrolidin-1-yl)benzyl)pyrrolidin-2-one]: the IC50 turned out to be 13 nM at human orexin-1 receptor (compound incubation 120 min) and 74 nM at human orexin-2 receptor (compound incubation 120 min).

As to `COc1cccc(OC)c1C1CCC(=O)N1Cc1cccc(-c2nccs2)c1` (stereo not drawn) [Example 124, 5-(2,6-dimethoxyphenyl)-1-(3-(thiazol-2-yl)benzyl)pyrrolidin-2-one], the concentration for half-maximal inhibition (IC50) at human orexin-1 receptor (compound incubation 120 min) was 23 nM; at human orexin-2 receptor (compound incubation 120 min) it was 89 nM.

Turning to `COc1cccc(OC)c1C1CCC(=O)N1Cc1cccc(-c2csc(C)n2)c1` (stereo not drawn) [Example 125, 5-(2,6-dimethoxyphenyl)-1-(3-(2-methylthiazol-4-yl)benzyl)pyrrolidin-2-one], the concentration for half-maximal inhibition (IC50) at human orexin-1 receptor (compound incubation 120 min) stood at 11 nM; at human orexin-2 receptor (compound incubation 120 min) it was 82 nM.

With `COc1cccc(OC)c1C1CCC(=O)N1Cc1cccc(-n2cccn2)c1` (stereo not drawn) [Example 126, 1-(3-(1H-pyrazol-1-yl)benzyl)-5-(2,6-dimethoxyphenyl)pyrrolidin-2-one], the IC50 was 165 nM at human orexin-1 receptor (compound incubation 120 min) and 839 nM at human orexin-2 receptor (compound incubation 120 min).

On to `COc1cccc(OC)c1C1CCC(=O)N1Cc1ccc2oc3ccccc3c2c1` (stereo not drawn) [Example 127, 1-(dibenzo[b,d]furan-2-ylmethyl)-5-(2,6-dimethoxyphenyl)pyrrolidin-2-one], for which the half-maximal inhibitory concentration (IC50) on human orexin-1 receptor (compound incubation 120 min) is 14 nM; at human orexin-2 receptor (compound incubation 120 min), 20 nM.

Regarding `COc1cccc(OC)c1C1CCC(=O)N1Cc1nc2ccccc2s1` (stereo not drawn) [Example 128, 1-(benzo[d]thiazol-2-ylmethyl)-5-(2,6-dimethoxyphenyl)pyrrolidin-2-one], the figures for the half-maximal inhibitory concentration (IC50) at human orexin-1 receptor (compound incubation 120 min) and on human orexin-2 receptor (compound incubation 120 min) were 3880 nM and 2050 nM, respectively.

As for `COc1cccc(OC)c1C1CCC(=O)N1Cc1cccc(N2CCCCC2)c1` (stereo not drawn) [Example 129, 5-(2,6-dimethoxyphenyl)-1-(3-(piperidin-1-yl)benzyl)pyrrolidin-2-one], the results for the IC50 on human orexin-1 receptor (compound incubation 120 min) and on human orexin-2 receptor (compound incubation 120 min) were 198 nM and 858 nM, respectively.
